Target: T1, P2Y purinoceptor 14 (Homo sapiens, UniProt Q15391)
T1 sequence (Q15391 whole entry): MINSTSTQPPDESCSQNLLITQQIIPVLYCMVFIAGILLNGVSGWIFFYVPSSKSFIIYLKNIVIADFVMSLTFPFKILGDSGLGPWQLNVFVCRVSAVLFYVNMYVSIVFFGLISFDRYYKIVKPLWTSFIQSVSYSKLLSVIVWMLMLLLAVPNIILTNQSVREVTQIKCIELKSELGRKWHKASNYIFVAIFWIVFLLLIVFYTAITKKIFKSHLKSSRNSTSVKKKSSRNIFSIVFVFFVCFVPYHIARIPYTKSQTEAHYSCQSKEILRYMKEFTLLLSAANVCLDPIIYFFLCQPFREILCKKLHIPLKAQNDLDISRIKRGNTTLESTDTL
Experiment: Agonist activity at human P2Y14 receptor expressed in COS7 cells assessed as stimulation of PLC
Type: functional, cell-based, COS-7

EC50 (cos-7) [nM]	Compound	EC50 [nM]
	O=C(O)[C@@H]1O[C@@H](OP(=O)(O)OP(=O)(O)OC[C@H]2O[C@@H](n3ccc(=O)[nH]c3=O)[C@H](O)[C@@H]2O)[C@@H](O)[C@H](O)[C@H]1O	370
4380	CC(=O)N[C@@H]1[C@H](OP(=O)(O)OP(=O)(O)OC[C@H]2O[C@@H](n3ccc(=O)[nH]c3=O)[C@H](O)[C@@H]2O)O[C@@H](CO)[C@H](O)[C@H]1O	

— ChEMBL document CHEMBL1138408, “Molecular dynamics simulation of the P2Y14 receptor. Ligand docking and identification of a putative binding site of the distal hexose moiety” (Bioorg Med Chem Lett, 2007)
